From patent US12577469B2, “Compound, composition, cured product, optically anisotropic body, optical element, and light guide element” (FUJIFILM Corporation, priority 2021, dated 2026)

How the values were obtained:
[1] = Evaluation of liquid crystallinity of compound (hot stage, polarization microscope); format: physicochemical; parameters: key: A case of having liquid crystallinity was evaluated as A; a case of having no liquid crystallinity was evaluated as B; conditions: compound alone, heated on hot stage
Experimental: Each compound was heated on a hot stage and observed with a polarization microscope, and the phase transition temperature was measured to evaluate the presence or absence of liquid crystallinity. A case of having liquid crystallinity was evaluated as A, and a case of having no liquid crystallinity was evaluated as B. The results are shown in the column of “Liquid crystallinity” of “Compound 2” in Table 1.

[2] = Evaluation of solubility in cyclopentanone (precipitation concentration); format: physicochemical; conditions: precipitation concentration in cyclopentanone at room temperature (25° C.)

| Structure (SMILES) | Compound 2 Liquid crystallinity [1] | Compound 2 Solubility [2] |
| --- | --- | --- |
| C=CC(=O)OCCSc1ccc(C#Cc2ccc(OCc3ccc(C#Cc4ccc(COc5ccc(C#Cc6ccc(SCCOC(=O)C=C)cc6)cc5C)cc4)cc3)c(C)c2)cc1 [Compound B-3] | A | B (the solubility in a case where the precipitation concentration was 5% by mass or less was evaluated as B) |
| C=CC(=O)OCCc1ccc(C#Cc2ccc(OCc3ccc(C#Cc4ccc(COc5ccc(C#Cc6ccc(CCOC(=O)C=C)cc6)cc5C)cc4)cc3)c(C)c2)cc1 [Compound B-2] | A | B (the solubility in a case where the precipitation concentration was 5% by mass or less was evaluated as B) |
| CC(=O)OCCc1ccc(C#Cc2ccc(OCc3ccc(C#Cc4ccc(COc5ccc(C#Cc6ccc(CCOC(C)=O)cc6)cc5C)cc4)cc3)c(C)c2)cc1 [Compound B-1] | A | B (the solubility in a case where the precipitation concentration was 5% by mass or less was evaluated as B) |
| C=CC(=O)OCCSc1ccc(C#Cc2ccc(OCc3ccc(C#Cc4ccc(COc5ccc(C#Cc6ccc(SCCOC(=O)C=C)cc6)cc5C(=O)OC)cc4)cc3)c(C(=O)OC)c2)cc1 [Compound B-4] | A | A (the solubility in a case where the precipitation concentration was more than 5% by mass was evaluated as A) |
